The values below come from patent publication US20260118350A1, “Fluorescent Probes for Peroxidase-Mediated Fluorescent Signal Amplification” (Seoul National University R&DB Foundation, priority 2024, published 2026).

One data set relates to organelle-targeted APEX2. As to the kind of experiment: Fixed-cell FLEX staining of organelle-targeted APEX2-POIs. To be noted: fixed cells, PHEMS buffer 100 mM pH 7.4. The class given is cell-based, Human. The procedure:
HeLa cells were transiently transfected with the APEX2-POI construct using PEI when cells reached approximately 70% confluency, following the protocol provided by the production company of PEI. After transfection and protein expression, the cells were fixed with 4% PFA in 1×DPBS for 15 minutes at room temperature. Subsequently, the cells were washed three times with DPBS. For the APEX reaction, JFT probes (100-500 μM) and H2O2 (0.5-1 mM) were used in 0.1 M PHEMS buffer for the specified time points. […] The detection of JFT fluorescence and immunofluorescence was performed using the GFP channel (excitation at 488 nm), RFP channel (excitation at 561 nm), and Cy5 channel (excitation at 647 nm) of a confocal light microscope 428 (FV3000, Olympus, Japan).
It was assessed whether JFT1 could react with APEX2 targeting various organelles under fixed conditions. […] Furthermore, JFT1 effectively generated a fluorescence signal with the APEX2-tagged POIs (APEX2-POIs) within specific compartments, including the mitochondrial matrix (Matrix-V5-APEX2), nucleus (V5-APEX2-NLS), and ER lumen (SEC61B-V5-APEX2) under fixed-cell conditions. […] These findings validate the wide applicability of JFT1 for APEX2-mediated fluorescence signal amplification (FLEX) in various subcellular organelles. […]

The test system of a further data set is TOM20-V5-APEX2. Briefly: Fixed-cell APEX labeling with TOM20-V5-APEX2 (confocal colocalization, line scan). The class given is cell-based, Human. The procedure:
HeLa cells were transiently transfected with the APEX2-POI construct using PEI when cells reached approximately 70% confluency, following the protocol provided by the production company of PEI. After transfection and protein expression, the cells were fixed with 4% PFA in 1×DPBS for 15 minutes at room temperature. Subsequently, the cells were washed three times with DPBS. For the APEX reaction, JFT probes (100-500 μM) and H2O2 (0.5-1 mM) were used in 0.1 M PHEMS buffer for the specified time points. The APEX2-mediated reaction was quenched using a quencher solution (a mixture of sodium ascorbate, trolox, and sodium azide, see PMID: 23371551), and the cells were washed three times with DPBS buffer. For immunofluorescence imaging, the cells were permeabilized with −20° C. methanol for 5 minutes, followed by the standard immunofluorescence staining protocol. The detection of JFT fluorescence and immunofluorescence was performed using the GFP channel (excitation at 488 nm), RFP channel (excitation at 561 nm), and Cy5 channel (excitation at 647 nm) of a confocal light microscope 428 (FV3000, Olympus, Japan). […]

Data set [1] in a line: Photophysical properties in buffer (absorption, fluorescence). The class given is physicochemical. The protocol:
These photophysical properties render the JF probes suitable for detection in the RFP channel (excitation at 561 nm, fluorescence emission filter: 565-620 nm). […] The absorbance spectra largely shifted from 515 (pH 7.4) to 416 nm when the probe was incubated at pH 6.0. […] This property enables the detection of JF probes in the GFP channel; however, the fluorescence intensity was negligible compared to that of GFP or GFP variant proteins (mEosEM etc.).

The next data set deals with Matrix-V5-APEX2. Briefly: Pre-embedding osmium treatment CLEM of JFT1-stained fixed Matrix-V5-APEX2 cells. The class given is cell-based. To be noted: 500 μM JFT1, 1 mM H2O2, 5 min; 0.4% OsO4, dehydration, resin embedding, 100 nm ultrathin section. The protocol: To obtain the SEM-based CLEM images via pre-embedding osmium treatment procedure (FIG. 2C, lower), cells were fixed with 2.5% glutaraldehyde (Electron Microscopy Sciences, cat. No. 16200) and 2% paraformaldehyde (Electron Microscopy Sciences, cat. No. 19210) in 0.1 M cacodylate solution (pH 7.0) for 30 min at 4° C. After washing, 20 mM glycine solution was used for quenching unreacted aldehyde. Next, JFT1 probe labeling with 500 μM JFT1 and 0.5-1 mM H2O2, was conducted for 5 min. Next, JFT1-labeled cells were post-fixed with 0.4% osmium tetroxide (OsO4) containing 1.5% potassium ferrocyanide in distilled water for 30 min at 4° C. and en bloc in 1% uranyl acetate (EMS, USA, cat. No. 22400) overnight and dehydrated with a graded ethanol series. The samples were then embedded with an EMBed-812 embedding kit (Electron Microscopy Sciences, USA, cat. No. 14120) and polymerized in an oven at 60° C. […]
Given the significance of osmium staining in EM sample preparation, the preservation of JF and JFT1 fluorescence after OsO4 treatment was tested. Remarkably, both JF- and JFT1-stained APEX2-expressing regions retained 70-80% of the original osmium-resistant fluorescence intensity even after osmium treatment (0.1% OsO4), facilitating their detection using confocal microscopy (FIG. 2D). […]

“Also recorded” adds a separate entry of the source.

Take `OCCn1cc(C[n+]2c(/C=C/c3ccc(O)cc3)sc3ccccc32)nn1` [JFT1, (E)-3-((1-(2-hydroxyethyl)-1H-1,2,3-triazol-4-yl)methyl)-2-(4-hydroxystyryl)benzo[d]thiazol-3-ium]: in the data set with organelle-targeted APEX2, the “fluorescence signal in GFP channel” value was “weak green fluorescence signal” and the “fluorescence signal in RFP channel” value is recorded as “strong red fluorescence signal”. For the same molecule, the “labeling pattern by line scan analysis vs anti-V5 stain” value with TOM20-V5-APEX2 (fixed cells, TOM20-V5-APEX2, RFP signal) was “most optimal and restricted labeling pattern; also recorded: most well-matched pattern”. For the same molecule, in the data set on TOM20-V5-APEX2 (fixed sample, TOM20-V5-APEX2), the “Pearson correlation coefficient (r) between probe-labeling region (RFP signal) and enzyme-expressed region (anti-V5 stain)” value amounted to 0.91. In addition, in data set [1] (acidic pH (pH<7), excitation 405 or 450 nm), the “green fluorescence Imax” value is reported as 520 nm. Moreover, in data set [1] (pH 6.0), the absorbance spectra maximum is on record as 416 nm. The same molecule registered an absorbance spectra maximum in data set [1] (pH 7.4) of 515 nm. The “fluorescence signal after pre-embedding steps” value with Matrix-V5-APEX2 was “well-preserved”.
